{
  "source": "patent US20120010178A1",
  "about": "“METHODS AND COMPOUNDS FOR TREATMENT OF NEURODEGENERATIVE DISORDERS” (PRESIDENT AND FELLOWS OF HARVARD COLLEGE, priority 2008, published 2012)",
  "key": {"SMN": {"system": "SMN", "test": "SMN immunofluorescence quantification (cytoplasm, nucleus, GEMs) in fibroblasts from SMA patients", "format": "cell-based, human", "conditions": "SMA patient fibroblasts", "method_in_brief": "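SMN immunostained and imaged by automated confocal microscopy; per-cell cytoplasmic and nuclear SMN intensity and GEM number and intensity quantified. PFA fixation used for screening.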"}, "[1]": {"system": "SMN1 and SMN2 transcripts", "test": "qRT-PCR of SMN1 and SMN2 transcripts after PDGF-BB", "format": "cell-based, human", "conditions": "50 ng/ml, over three days", "method": "Although there is much more known about growth factor specificity and downstream pathways that they activate, whether PDGF effect on SMN was mediated through the binding to the PDGFR was tested next. The SMN-increasing effects of PDGF were blocked by DMPQ and […], two small molecules inhibitors of the PDGF receptor (FIG. 21a). In addition PDGF neutralizing antibody titration were performed in the cells incubated with 20 ng/ml platelet-derived PDGF. Depending on the antibody concentration, gradient of SMN level decrease reaching 40% was observed (FIG. 21b). Moreover, as might be predicted, since there are appreciable levels of PDGF in the media serum in which the fibroblasts are normally maintained, simply adding PDGFR inhibitors DMPQ and AG-1296 to the media decreases the “basal” level of SMN in these cells down to 15-20%, (FIG. 22). […]\n[…] was purified using Tri-Reagent (Sigma-Aldrich) protocol and quantified on the Nanodrop (Thermo Fisher Scientific). […] Synthesised cDNA was diluted 5 times and 1 μl of cDNA sample was PCR amplified using RT^2SYBR Green/ROX PCR Master Mix and primer assays for SMN1, SMN2, GAPDH (SABiosciences) genes on 7900HT Fast Real-Time PCR System (ABI). qPCR results were analyzed with RQ Manager Software (ABI) by […] quantification method."}},
  "note": "Entries after “also recorded” stand apart in the source; their conditions may differ.",
  "data": [
    {"substance": "PDGF-BB: human recombinant PDGF-BB", "values": [
      {"measurement": "levels of cytoplasmic and nuclear SMN (in words)", "setting": "SMN; substance alone", "value": "strongest activator of SMN; also recorded: most potent growth factor that elevated SMN protein levels"},
      {"measurement": "Avg. SMN fold increase", "setting": "SMN; human PDGF isoforms", "value": "2-2.3 fold"},
      {"measurement": "level of SMN1 and SMN2 transcripts", "setting": "[1]", "value": "little or no increase in SMN transcripts"}
    ]}
  ]
}
